Organism: Rattus norvegicus
Assay: DrugMatrix - Regimen: Daily Repeat
Format: toxicity, organism-based, Sprague-Dawley
Set-up: regimen Daily Repeat, gender Male, age 6-8 weeks
Details: in vivo, po, route oral GAVAGE, vehicle 100 % WATER; for ABSOLUTE BASOPHIL / ABSOLUTE EOSINOPHIL / ABSOLUTE LYMPHOCYTE / ABSOLUTE MONOCYTE / ABSOLUTE SEGMENTED NEUTROPHIL / BASOPHIL / EOSINOPHIL / ERYTHROCYTE COUNT / HEMATOCRIT / HEMOGLOBIN / LEUKOCYTE COUNT / LYMPHOCYTE / MEAN CORPUSCULAR HEMOGLOBIN / MEAN CORPUSCULAR HEMOGLOBIN CONCENTRATION / MEAN CORPUSCULAR VOLUME / MONOCYTE / NEUTROPHIL / NUCLEATED RED BLOOD CELLS / PLATELET COUNT: tissue Blood; for ALANINE AMINOTRANSFERASE / ALBUMIN / ALKALINE PHOSPHATASE / ASPARTATE AMINOTRANSFERASE / BLOOD UREA NITROGEN / CARBON DIOXIDE / CHLORIDE / CHOLESTEROL / CREATINE PHOSPHOKINASE / CREATININE / GLUCOSE / LACTATE DEHYDROGENASE / LIPASE / PHOSPHORUS / POTASSIUM / SODIUM / TOTAL BILIRUBIN / TOTAL PROTEIN / URIC ACID: tissue Plasma
[1] = 200 mg/kg, 120 h, dose level Low, time 5 day
[2] = 2000 mg/kg, 72 h, dose level High, time 3 day
[3] = 2000 mg/kg, 120 h, dose level High, time 5 day

Compound: CC(O)CO (centres undefined) [PROPYLENE GLYCOL]
- ABSOLUTE BASOPHIL [1]: 0 CELLS/uL
- ABSOLUTE EOSINOPHIL [1]: 0 CELLS/uL
- ABSOLUTE LYMPHOCYTE [1]: 15454 CELLS/uL
- ABSOLUTE MONOCYTE [1]: 284.33 CELLS/uL
- ABSOLUTE SEGMENTED NEUTROPHIL [1]: 1261.67 CELLS/uL
- BASOPHIL [1]: 0%
- EOSINOPHIL [1]: 0%
- ERYTHROCYTE COUNT [1]: 5.7 x10E6/uL
- HEMATOCRIT [1]: 35.5%
- HEMOGLOBIN [1]: 14.1 G/DL
- LEUKOCYTE COUNT [1]: 17 x10E3/uL
- LYMPHOCYTE [1]: 91%
- MEAN CORPUSCULAR HEMOGLOBIN [1]: 24.83 pg
- MEAN CORPUSCULAR HEMOGLOBIN CONCENTRATION [1]: 39.73 G/DL
- MEAN CORPUSCULAR VOLUME [1]: 62.37 fL
- MONOCYTE [1]: 1.67%
- NEUTROPHIL [1]: 7.33%
- NUCLEATED RED BLOOD CELLS [1]: 0 /100WBC
- PLATELET COUNT [1]: 1288 x10E3/uL
- ALANINE AMINOTRANSFERASE [1]: 49.33 u/L
- ALBUMIN [1]: 4.37 G/DL
- ALKALINE PHOSPHATASE [1]: 314.33 u/L
- ASPARTATE AMINOTRANSFERASE [1]: 76.33 u/L
- BLOOD UREA NITROGEN [1]: 18 mg/dL
- CARBON DIOXIDE [1]: 25.33 mmol/L
- CHLORIDE [1]: 101 MEQ/L
- CHOLESTEROL [1]: 73 mg/dL
- CREATINE PHOSPHOKINASE [1]: 227.67 u/L
- CREATININE [1]: 0.16 mg/dL
- GLUCOSE [1]: 165.67 mg/dL
- LACTATE DEHYDROGENASE [1]: 181.67 u/L
- LIPASE [1]: 8.33 u/L
- PHOSPHORUS [1]: 12.87 mg/dL
- POTASSIUM [1]: 6.99 MEQ/L
- SODIUM [1]: 143.7 MEQ/L
- TOTAL BILIRUBIN [1]: 0.23 mg/dL
- TOTAL PROTEIN [1]: 6.03 G/DL
- URIC ACID [1]: 2.13 mg/dL
- ABSOLUTE BASOPHIL [2]: 0 CELLS/uL
- ABSOLUTE EOSINOPHIL [2]: 0 CELLS/uL
- ABSOLUTE LYMPHOCYTE [2]: 11801.33 CELLS/uL
- ABSOLUTE MONOCYTE [2]: 112 CELLS/uL
- ABSOLUTE SEGMENTED NEUTROPHIL [2]: 1053.33 CELLS/uL
- BASOPHIL [2]: 0%
- EOSINOPHIL [2]: 0%
- ERYTHROCYTE COUNT [2]: 5.54 x10E6/uL
- HEMATOCRIT [2]: 34.73%
- HEMOGLOBIN [2]: 13.73 G/DL
- LEUKOCYTE COUNT [2]: 12.97 x10E3/uL
- LYMPHOCYTE [2]: 90.33%
- MEAN CORPUSCULAR HEMOGLOBIN [2]: 24.8 pg
- MEAN CORPUSCULAR HEMOGLOBIN CONCENTRATION [2]: 39.53 G/DL
- MEAN CORPUSCULAR VOLUME [2]: 62.77 fL
- MONOCYTE [2]: 1%
- NEUTROPHIL [2]: 8.67%
- NUCLEATED RED BLOOD CELLS [2]: 0 /100WBC
- PLATELET COUNT [2]: 1166 x10E3/uL
- ALANINE AMINOTRANSFERASE [2]: 53.33 u/L
- ALBUMIN [2]: 4.3 G/DL
- ALKALINE PHOSPHATASE [2]: 390 u/L
- ASPARTATE AMINOTRANSFERASE [2]: 82 u/L
- BLOOD UREA NITROGEN [2]: 14.33 mg/dL
- CARBON DIOXIDE [2]: 23 mmol/L
- CHLORIDE [2]: 100.67 MEQ/L
- CHOLESTEROL [2]: 65.33 mg/dL
- CREATINE PHOSPHOKINASE [2]: 195 u/L
- CREATININE [2]: 0.18 mg/dL
- GLUCOSE [2]: 154.67 mg/dL
- LACTATE DEHYDROGENASE [2]: 119.33 u/L
- LIPASE [2]: 10.67 u/L
- PHOSPHORUS [2]: 12.87 mg/dL
- POTASSIUM [2]: 6.42 MEQ/L
- SODIUM [2]: 143.1 MEQ/L
- TOTAL BILIRUBIN [2]: 0.17 mg/dL
- TOTAL PROTEIN [2]: 5.93 G/DL
- URIC ACID [2]: 1.53 mg/dL
- ABSOLUTE BASOPHIL [3]: 0 CELLS/uL
- ABSOLUTE EOSINOPHIL [3]: 46 CELLS/uL
- ABSOLUTE LYMPHOCYTE [3]: 14960.67 CELLS/uL
- ABSOLUTE MONOCYTE [3]: 42.67 CELLS/uL
- ABSOLUTE SEGMENTED NEUTROPHIL [3]: 1217.33 CELLS/uL
- BASOPHIL [3]: 0%
- EOSINOPHIL [3]: 0.33%
- ERYTHROCYTE COUNT [3]: 5.65 x10E6/uL
- HEMATOCRIT [3]: 35.27%
- HEMOGLOBIN [3]: 14 G/DL
- LEUKOCYTE COUNT [3]: 16.27 x10E3/uL
- LYMPHOCYTE [3]: 91.67%
- MEAN CORPUSCULAR HEMOGLOBIN [3]: 24.83 pg
- MEAN CORPUSCULAR HEMOGLOBIN CONCENTRATION [3]: 39.7 G/DL
- MEAN CORPUSCULAR VOLUME [3]: 62.5 fL
- MONOCYTE [3]: 0.33%
- NEUTROPHIL [3]: 7.67%
- NUCLEATED RED BLOOD CELLS [3]: 0 /100WBC
- PLATELET COUNT [3]: 1315.33 x10E3/uL
- ALANINE AMINOTRANSFERASE [3]: 52 u/L
- ALBUMIN [3]: 4.3 G/DL
- ALKALINE PHOSPHATASE [3]: 327.33 u/L
- ASPARTATE AMINOTRANSFERASE [3]: 76.67 u/L
- BLOOD UREA NITROGEN [3]: 17.33 mg/dL
- CARBON DIOXIDE [3]: 27 mmol/L
- CHLORIDE [3]: 102 MEQ/L
- CHOLESTEROL [3]: 69 mg/dL
- CREATINE PHOSPHOKINASE [3]: 218 u/L
- CREATININE [3]: 0.16 mg/dL
- GLUCOSE [3]: 159.33 mg/dL
- LACTATE DEHYDROGENASE [3]: 121 u/L
- LIPASE [3]: 8.67 u/L
- PHOSPHORUS [3]: 12.4 mg/dL
- POTASSIUM [3]: 5.9 MEQ/L
- SODIUM [3]: 144.67 MEQ/L
- TOTAL BILIRUBIN [3]: 0.17 mg/dL
- TOTAL PROTEIN [3]: 6.07 G/DL
- URIC ACID [3]: 1.43 mg/dL
